Reference: ChEMBL document CHEMBL1629665, “Contribution of vraSR and graSR point mutations to vancomycin resistance in vancomycin-intermediate Staphylococcus aureus” (2009)
Values after ≈ are worked out from the molar mass of the structure shown.

Experiments:
Format in all cases: functional
Staphylococcus aureus [1] = assay: Antibacterial activity against vancomycin-intermediate Staphylococcus aureus Mu50 after 24 hrs by Etest
Staphylococcus aureus [2] = assay: Antibacterial activity against vancomycin-susceptible Staphylococcus aureus Mu50omega after 24 hrs by Etest
Staphylococcus aureus [3] = assay: Antibacterial activity against vancomycin-susceptible Staphylococcus aureus Mu50omega expressing vraSn mutant gene after 24 hrs by Etest
Staphylococcus aureus [4] = assay: Antibacterial activity against vancomycin-susceptible Staphylococcus aureus Mu50omega expressing vraSm mutant gene after 24 hrs by Etest
Staphylococcus aureus [5] = assay: Antibacterial activity against vancomycin-susceptible Staphylococcus aureus Mu50omega expressing vraSm, graRm mutant gene after 24 hrs by Etest
Staphylococcus aureus [6] = assay: Antibacterial activity against vancomycin-intermediate Staphylococcus aureus Mu50 after 48 hrs by Etest
Staphylococcus aureus [7] = assay: Antibacterial activity against vancomycin-susceptible Staphylococcus aureus Mu50omega after 48 hrs by Etest
Staphylococcus aureus [8] = assay: Antibacterial activity against vancomycin-susceptible Staphylococcus aureus Mu50omega expressing vraSn mutant gene after 48 hrs by Etest
Staphylococcus aureus [9] = assay: Antibacterial activity against vancomycin-susceptible Staphylococcus aureus Mu50omega expressing vraSm mutant gene after 48 hrs by Etest
Staphylococcus aureus [10] = assay: Antibacterial activity against vancomycin-susceptible Staphylococcus aureus Mu50omega expressing vraSm, graRm mutant gene after 48 hrs by Etest

Compound	MIC (Staphylococcus aureus [1]; Mu50, 24 h) [µg/mL]	MIC (Staphylococcus aureus [2]) [µg/mL]	MIC (Staphylococcus aureus [3]) [µg/mL]	MIC (Staphylococcus aureus [4]) [µg/mL]	MIC (Staphylococcus aureus [5]) [µg/mL]	MIC (Staphylococcus aureus [6]; Mu50, 48 h) [µg/mL]	MIC (Staphylococcus aureus [7]) [µg/mL]	MIC (Staphylococcus aureus [8]) [µg/mL]	MIC (Staphylococcus aureus [9]) [µg/mL]	MIC (Staphylococcus aureus [10]) [µg/mL]	MIC (Staphylococcus aureus [1]) [µg/mL]	MIC (Staphylococcus aureus [6]) [µg/mL]
C[C@@H](O)[C@H]1C(=O)N2C(C(=O)O)=C(SCCNC=N)C[C@H]12 [IMIPENEM ANHYDROUS]	> 32	0.38 (≈ 1.27 µM)	> 32	> 32	> 32	> 32	0.38 (≈ 1.27 µM)	> 32	> 32	> 32	–	–
CO[C@@]1(NC(=O)Cc2cccs2)C(=O)N2C(C(=O)O)=C(COC(N)=O)CS[C@@H]21 [CEFOXITIN]	> 256	32 (≈ 74.9 µM)	> 256	> 256	> 256	> 256	32 (≈ 74.9 µM)	> 256	> 256	> 256	–	–
CC[C@H]1OC(=O)[C@H](C)[C@@H](O[C@H]2C[C@@](C)(OC)[C@@H](O)[C@H](C)O2)[C@H](C)[C@@H](O[C@@H]2O[C@H](C)C[C@H](N(C)C)[C@H]2O)[C@](C)(O)C[C@@H](C)CN(C)[C@H](C)[C@@H](O)[C@]1(C)O [AZITHROMYCIN]	> 256	> 256	–	–	–	> 256	> 256	–	–	–	–	–
CCCCCCCCCC(=O)N[C@@H](Cc1c[nH]c2ccccc12)C(=O)N[C@H](CC(N)=O)C(=O)N[C@@H](CC(=O)O)C(=O)N[C@@H]1C(=O)NCC(=O)N[C@@H](CCCN)C(=O)N[C@@H](CC(=O)O)C(=O)N[C@H](C)C(=O)N[C@@H](CC(=O)O)C(=O)NCC(=O)N[C@H](CO)C(=O)N[C@@H]([C@H](C)CC(=O)O)C(=O)N[C@@H](CC(=O)c2ccccc2N)C(=O)O[C@@H]1C	2 (≈ 1.23 µM)	1 (≈ 0.617 µM)	1.5 (≈ 0.926 µM)	1.5 (≈ 0.926 µM)	2 (≈ 1.23 µM)	2 (≈ 1.23 µM)	1 (≈ 0.617 µM)	1.5 (≈ 0.926 µM)	1.5 (≈ 0.926 µM)	2 (≈ 1.23 µM)	–	–
CC(=O)NC[C@H]1CN(c2ccc(N3CCOCC3)c(F)c2)C(=O)O1 [LINEZOLID]	0.5 (≈ 1.48 µM)	0.5 (≈ 1.48 µM)	0.5 (≈ 1.48 µM)	0.5 (≈ 1.48 µM)	0.5 (≈ 1.48 µM)	0.5 (≈ 1.48 µM)	0.5 (≈ 1.48 µM)	0.5 (≈ 1.48 µM)	0.5 (≈ 1.48 µM)	0.5 (≈ 1.48 µM)	–	–
C[C@H]1c2cccc(O)c2C(=O)C2=C(O)[C@]3(O)C(=O)C(C(N)=O)=C(O)[C@@H](N(C)C)[C@@H]3[C@@H](O)[C@@H]21.O [DOXYCYCLINE]	8	8	8	8	8	> 256	> 256	–	–	–	–	–
CO/N=C(\C(=O)N[C@@H]1C(=O)N2C(C(=O)O)=CCS[C@H]12)c1csc(N)n1 [CEFTIZOXIME]	> 256	0.38 (≈ 0.991 µM)	> 256	> 256	> 256	> 256	0.5 (≈ 1.3 µM)	> 256	> 256	> 256	–	–
GENTAMICIN	–	0.064	64	0.064	0.064	–	0.064	0.064	0.064	0.064	0.128	0.128
O=C(O)c1cn(C2CC2)c2cc(N3CCNCC3)c(F)cc2c1=O [CIPROFLOXACIN]	> 32	> 32	–	–	–	> 32	> 32	–	–	–	–	–
CC(=O)OCC1=C(C(=O)O)N2C(=O)[C@@H](NC(=O)Cc3cccs3)[C@H]2SC1 [CEPHALOTHIN]	128 (≈ 323 µM)	0.25 (≈ 0.631 µM)	> 256	> 256	> 256	128 (≈ 323 µM)	0.38 (≈ 0.959 µM)	> 256	> 256	> 256	–	–
CCC[C@@H]1C[C@@H](C(=O)N[C@@H]([C@H]2O[C@H](SC)[C@H](O)[C@@H](O)[C@H]2O)[C@H](C)Cl)N(C)C1 [CLINDAMYCIN]	> 256	> 256	–	–	–	> 256	> 256	–	–	–	–	–
